# Source: PubChem BioAssay AID2750 (The Scripps Research Institute Molecular Screening Center, 2010)
# pIC50: −log10 of the molar value. Where “and” joins values, the source holds several entries; their conditions need not be identical. Equal values may be shown once.
# Tested on: DLD-1 KLF5 promoter-luciferase reporter, luminescence
# Experiment: potency of KLF5 luciferase signal suppressors – luminescence, DLD-1 cells, powder samples, late-stage follow-up (AID 2750)
row,pIC50,SMILES
1,6.74,Cc1ccc2nc(NC(=O)CCCc3nc4ccccc4s3)sc2c1
2,7.70,CCOC(=O)c1sc(NC(=O)c2cc3c(s2)CCC(C)C3)nc1C (stereo unspecified)
3,7.17,Cc1cc(C(=O)CN2C(=O)c3ccccc3S2(=O)=O)c(C)n1CC1CCCO1 (stereo unspecified)
4,6.79,O=C(NCCc1ccccc1F)c1ccc2c(c1)OCCO2
5,6.66,O=C(NCCc1ccccc1)c1ccc2c(c1)OCCCO2
6,7.98,COc1cccc(C=NNc2ccc(C(=O)O)cc2)c1O
7,7.12,CCCc1ccc(-c2ccc(/C=C/C(=O)O)cc2)nc1
8,6.23,CC(C)(C)c1ccc(C(=O)O/N=C(\N)c2ccccn2)cc1
9,7.95,COc1ccc(C(=O)Nc2ccccc2C(=O)NN=Cc2ccc(O)c(OC)c2)cc1
10,6.88,CCCc1ccc(C(=O)O/N=C(\N)c2ccccn2)cc1
11,6.55,c1ccc(-c2ccc(-c3nc(-c4ccccn4)no3)cc2)cc1
12,6.22,CN(C(=O)COC(=O)/C=C/c1cccc([N+](=O)[O-])c1)C1CCS(=O)(=O)C1 (stereo unspecified)
13,7.14 and 7.24,CC(C)(C)c1ccc(-c2noc(CCC(=O)Nc3cccnc3)n2)cc1
14,7.66 and 7.73,CCOC(=O)c1sc(NC(=O)c2ccc3ncsc3c2)nc1C
15,6.45,COc1ccc(OCc2cccc(C(=O)Nn3cc([N+](=O)[O-])cn3)c2)cc1
16,7.57,CN1CCN(c2ccc(-c3ccc4ccccc4n3)cc2)CC1
